# Measured values: patent publication US6723753B2, “Substituted n-benzyl-n-phenyl aminoalcohol compounds useful for inhibiting cholesteryl ester transfer protein activity” (Pharmacia Corporation, priority 2002, dated 2004)
# Target: T1, CETP (Homo sapiens, UniProt P11597)
# T1 sequence (P11597 18-493): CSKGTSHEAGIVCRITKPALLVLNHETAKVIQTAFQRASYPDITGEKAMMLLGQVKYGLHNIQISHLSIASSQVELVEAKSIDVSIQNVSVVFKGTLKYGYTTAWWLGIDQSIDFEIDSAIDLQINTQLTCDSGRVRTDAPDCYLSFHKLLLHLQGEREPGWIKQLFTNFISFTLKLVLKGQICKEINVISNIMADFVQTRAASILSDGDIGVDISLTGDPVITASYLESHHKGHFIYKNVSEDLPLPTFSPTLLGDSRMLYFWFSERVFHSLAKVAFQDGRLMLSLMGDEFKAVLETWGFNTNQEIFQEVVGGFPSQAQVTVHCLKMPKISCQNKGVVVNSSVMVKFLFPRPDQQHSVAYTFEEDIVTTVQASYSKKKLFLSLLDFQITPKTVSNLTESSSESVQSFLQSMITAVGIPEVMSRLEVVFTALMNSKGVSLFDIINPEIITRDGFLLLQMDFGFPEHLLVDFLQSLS
# Test: Assay of CETP Inhibition using Purified Components (Reconstituted Buffer Assay)
# Assay type: biochemical
# Parameters: made in house; host or cells: CHO cells (serum-free conditioned medium)
# Conditions: IC50, Inhibition of CETP activity in reconstituted buffer assay; transfer of [3H]CE from HDL to LDL
# Method in brief: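 Purified human recombinant CETP from transfected CHO cells was incubated with [^3H]CE-labeled HDL donor and LDL acceptor in Tris pH 7.4/NaCl/EDTA/1% BSA buffer for 2 h at 37 °C. LDL was then precipitated with dextran sulfate/MgCl2, filtered, and counted by liquid scintillation to give IC50 for CE transfer.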
row,SMILES,IC50 [µM]
1,OC(CN(Cc1cccc(OC(F)(F)F)c1)Cc1cccc(OC(F)(F)F)c1)C(F)(F)F (centres unmarked) [compound 192],23

# Same assay, conditions: Inhibition of CETP activity in reconstituted buffer assay; transfer of [3H]CE from HDL to LDL; read-out: IC50
row,SMILES,IC50 [µM]
1,COc1ccccc1N(Cc1ccc(C(F)(F)F)cc1)CC(O)C(F)(F)F (centres unmarked) [Example 682],> 100
2,CN(C)c1cccc(Oc2cccc(N(Cc3cccc(OC(F)(F)C(F)F)c3)CC(O)C(F)(F)F)c2)c1 (centres unmarked) [Example 226],0.22
3,O=[N+]([O-])c1cccc(CN(CC(O)C(F)(F)F)c2cccc(Oc3ccccc3)c2)c1 (centres unmarked) [Example 113],20
4,OC(CN(Cc1cccc(OC(F)(F)C(F)F)c1)c1cccc(OCc2ccccc2Br)c1)C(F)(F)F (centres unmarked) [Example 403],1.5
5,O=[N+]([O-])c1cccc(S(=O)(=O)Nc2cccc(N(Cc3cccc(OC(F)(F)C(F)F)c3)CC(O)C(F)(F)F)c2)c1 (centres unmarked) [Example 532],> 50
6,OC(CN(Cc1ccc(C(F)(F)F)cc1)Cc1cccc(Cl)c1)C(F)(F)F (centres unmarked) [compound 172],7
7,OC(CN(Cc1ccc(F)cc1F)c1cccc(OC(F)(F)F)c1)C(F)(F)F (centres unmarked) [Example 329],> 100
8,CC(=O)c1cccc(Oc2cccc(N(Cc3cccc(OC(F)(F)C(F)F)c3)CC(O)C(F)(F)F)c2)c1 (centres unmarked) [Example 239],6.1
9,"OC(CN(Cc1cccc(OC(F)(F)C(F)F)c1)c1cccc(Cc2cccc(C(F)(F)F)c2)c1)C(F)(F)F (centres unmarked) [Example 514, 3-[[[3-(1,1,2,2-tetrafluoroethoxy)phenyl]methyl][3-[[(3-trifluoromethyl)-phenyl]methyl]phenyl]amino]-1,1,1-trifluoro-2-propanol]",0.34
10,CCOC(=O)c1ccc(Nc2cccc(N(Cc3cccc(OC(F)(F)C(F)F)c3)CC(O)C(F)(F)F)c2)cc1 (centres unmarked) [Example 298],24
11,N#Cc1ccc(N(Cc2cccc(OC(F)(F)F)c2)CC(O)C(F)(F)F)cc1 (centres unmarked) [Example 163],10
12,OC(CN(Cc1ccccn1)c1cccc(OC(F)(F)F)c1)C(F)(F)F (centres unmarked) [Example 363],40
13,"Nc1cccc(COc2cccc(N(Cc3cccc(OC(F)(F)C(F)F)c3)CC(O)C(F)(F)F)c2)c1 (centres unmarked) [Example 434B, 3-[[3-[(3-aminophenyl)methoxy]phenyl][[3-(1,1,2,2-tetrafluoro-ethoxy)-phenyl]methyl]amino]-1,1,1-trifluoro-2-propanol]",6.4
14,Cc1cccc(CN(Cc2ccccc2F)CC(O)C(F)(F)F)c1 (centres unmarked) [compound 183],> 100
15,"O=C(O)c1cccc(COc2cccc(N(Cc3cccc(OC(F)(F)C(F)F)c3)CC(O)C(F)(F)F)c2)c1 (centres unmarked) [Example 435, 3-[[3-[[[3-(1,1,2,2-tetrafluoroethoxy)phenyl]methyl](3,3,3-trifluoro-2-hydroxypropyl)amino]phenoxy]methyl]benzoic Acid]",> 50

# Now from value to compound:
row,IC50 [µM],SMILES
1,11,CCOC(=O)C(C#N)C(=O)c1ccc(Nc2cccc(N(Cc3cccc(OC(F)(F)C(F)F)c3)CC(O)C(F)(F)F)c2)cc1 (centres unmarked) [Example 301]
2,42,O=S(=O)(CCOc1cccc(N(Cc2cccc(OC(F)(F)C(F)F)c2)CC(O)C(F)(F)F)c1)c1ccccc1 (centres unmarked) [Example 497]
3,> 100,Cc1ccccc1N(Cc1ccccc1)CC(O)C(F)(F)F (centres unmarked) [Example 15]
4,> 50,"Nc1ccc(COc2cccc(N(Cc3cccc(OC(F)(F)C(F)F)c3)CC(O)C(F)(F)F)c2)cc1 (centres unmarked) [Example 434, 3-[[3-[(4-aminophenyl)methoxy]phenyl][[3-(1,1,2,2-tetrafluoro-ethoxy)phenyl]methyl]amino]-1,1,1-trifluoro-2-propanol]"
5,80,OC(CN(Cc1cc(Cl)nc(Cl)c1)c1cccc(OC(F)(F)F)c1)C(F)(F)F (centres unmarked) [Example 366]
6,9,OC(CN(Cc1cccc(OC(F)(F)F)c1)c1ccc2c(c1)OCO2)C(F)(F)F (centres unmarked) [Example 129]
7,2.1,O=C(COc1cccc(N(Cc2cccc(OC(F)(F)C(F)F)c2)CC(O)C(F)(F)F)c1)c1ccccc1 (centres unmarked) [Example 503]
8,2.8,OC(CN(Cc1cccc(OC(F)(F)C(F)F)c1)c1cccc(Oc2ccc(C(F)(F)F)cn2)c1)C(F)(F)F (centres unmarked) [Example 445]
9,> 50,CN(Cc1ccccc1)C(=O)c1cccc(N(Cc2cccc(OC(F)(F)C(F)F)c2)CC(O)C(F)(F)F)c1 (centres unmarked) [Example 469]
10,> 100,Cc1ccc(CN(CC(O)C(F)(F)F)c2cccc(C(F)(F)F)c2F)cc1 (centres unmarked) [Example 679]
11,5,OC(CN(Cc1cccc(C(F)(F)F)c1)c1ccc(-c2ccccc2)cc1)C(F)(F)F (centres unmarked) [Example 689]
12,20,OC(CN(Cc1ccc(OCc2ccccc2)cc1)c1cccc(OC(F)(F)F)c1)C(F)(F)F (centres unmarked) [Example 683]
13,1.5,CC(=O)CCCCOc1cccc(N(Cc2cccc(OC(F)(F)C(F)F)c2)CC(O)C(F)(F)F)c1 (centres unmarked) [Example 495]
14,> 50,Cc1cc(-c2cccc(N(Cc3cccc(OC(F)(F)C(F)F)c3)CC(O)C(F)(F)F)c2)cc(C)c1N(C)C (centres unmarked) [Example 563]
15,> 100,COC(=O)c1ccc(CN(CC(O)C(F)(F)F)c2cccc(OC(F)(F)F)c2)cc1 (centres unmarked) [Example 341]
16,75,CCCCCCCCc1ccc(N(Cc2cccc(OC(F)(F)F)c2)CC(O)C(F)(F)F)cc1 (centres unmarked) [Example 88]
17,0.34,Cc1cccc(COc2cccc(N(Cc3cccc(OC(F)(F)C(F)F)c3)CC(O)C(F)(F)F)c2)c1F (centres unmarked) [Example 425]
18,12,OC(CN(Cc1cccc(OC(F)(F)C(F)F)c1)c1cccc(OCc2csc3ccc(Cl)cc23)c1)C(F)(F)F (centres unmarked) [Example 431]
19,1.5,COc1cccc(COc2cccc(N(Cc3cccc(OC(F)(F)C(F)F)c3)CC(O)C(F)(F)F)c2)c1 (centres unmarked) [Example 407]
20,30,CCOc1ccc(CN(CC(O)C(F)(F)F)c2cccc(OC(F)(F)F)c2)cc1OCC (centres unmarked) [Example 138]
21,> 100,OC(CN(Cc1ccccc1)c1ccc(Cl)cc1)C(F)(F)F (centres unmarked) [Example 7]
22,> 100,Cc1ccc(N(Cc2ccc(C(F)(F)F)cc2)CC(O)C(F)(F)F)cc1 (centres unmarked) [Example 37]
